The term EC50 denotes the midpoint of the concentration-response curve. A word on the AC50: it is the midpoint of the concentration-response curve, whichever way the signal moves.

The structures appear in SMILES notation. Active and inactive are the calls of the source.

IC50, EC50 and AC50 data for 9 compounds are collected here from ChEMBL document CHEMBL1201862, “PubChem BioAssay data set” (2004).

One assay has as its target Phospholipase A2 (Homo sapiens, UniProt P04054). It is filed as functional.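 Also: confirmatory dose-response counterscreen on phospholipase A2, testing hits that came from an ultra-high-throughput screen for ATG4B inhibitors.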
The target in assay [1] is T1, Sentrin-specific protease 7 (Homo sapiens, UniProt Q9BQF6).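 Also: Luminescence-based dose-response confirmation of ultra-high-throughput screening hits, measuring inhibition of SENP7.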
T1 sequence (Q9BQF6 whole entry): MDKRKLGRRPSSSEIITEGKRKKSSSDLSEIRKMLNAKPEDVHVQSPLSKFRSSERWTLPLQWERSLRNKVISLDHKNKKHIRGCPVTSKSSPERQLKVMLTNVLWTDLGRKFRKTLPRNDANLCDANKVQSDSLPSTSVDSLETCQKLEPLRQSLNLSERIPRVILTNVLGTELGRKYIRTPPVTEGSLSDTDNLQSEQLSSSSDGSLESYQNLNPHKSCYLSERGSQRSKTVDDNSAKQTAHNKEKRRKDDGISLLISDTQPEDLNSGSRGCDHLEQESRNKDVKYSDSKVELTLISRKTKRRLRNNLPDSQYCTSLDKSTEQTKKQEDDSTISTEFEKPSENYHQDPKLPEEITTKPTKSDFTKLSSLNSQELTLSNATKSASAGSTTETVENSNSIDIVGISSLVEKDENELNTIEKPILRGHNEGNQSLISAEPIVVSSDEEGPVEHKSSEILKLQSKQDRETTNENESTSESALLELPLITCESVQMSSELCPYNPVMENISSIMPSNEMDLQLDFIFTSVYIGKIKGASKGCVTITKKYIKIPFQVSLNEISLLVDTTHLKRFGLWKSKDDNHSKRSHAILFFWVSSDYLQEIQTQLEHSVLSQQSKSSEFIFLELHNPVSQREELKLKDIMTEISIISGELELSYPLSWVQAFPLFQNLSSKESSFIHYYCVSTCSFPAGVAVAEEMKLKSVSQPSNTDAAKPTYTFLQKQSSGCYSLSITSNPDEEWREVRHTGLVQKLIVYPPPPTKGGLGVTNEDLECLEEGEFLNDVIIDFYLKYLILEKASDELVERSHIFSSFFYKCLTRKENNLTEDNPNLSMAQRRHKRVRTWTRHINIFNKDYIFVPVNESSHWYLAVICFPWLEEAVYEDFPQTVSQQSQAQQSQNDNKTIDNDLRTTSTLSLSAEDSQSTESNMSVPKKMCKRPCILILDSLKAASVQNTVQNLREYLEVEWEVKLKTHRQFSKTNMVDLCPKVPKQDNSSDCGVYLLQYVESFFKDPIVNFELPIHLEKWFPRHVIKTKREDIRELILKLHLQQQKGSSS
The format is functional.

The target in assay [2] is T2, Sentrin-specific protease 6 (Homo sapiens, UniProt Q9GZR1).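 Also: Luminescence-based dose-response confirmatory assay of SENP6 inhibition, following up an ultra-high-throughput screen.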
T2 sequence (Q9GZR1 whole entry): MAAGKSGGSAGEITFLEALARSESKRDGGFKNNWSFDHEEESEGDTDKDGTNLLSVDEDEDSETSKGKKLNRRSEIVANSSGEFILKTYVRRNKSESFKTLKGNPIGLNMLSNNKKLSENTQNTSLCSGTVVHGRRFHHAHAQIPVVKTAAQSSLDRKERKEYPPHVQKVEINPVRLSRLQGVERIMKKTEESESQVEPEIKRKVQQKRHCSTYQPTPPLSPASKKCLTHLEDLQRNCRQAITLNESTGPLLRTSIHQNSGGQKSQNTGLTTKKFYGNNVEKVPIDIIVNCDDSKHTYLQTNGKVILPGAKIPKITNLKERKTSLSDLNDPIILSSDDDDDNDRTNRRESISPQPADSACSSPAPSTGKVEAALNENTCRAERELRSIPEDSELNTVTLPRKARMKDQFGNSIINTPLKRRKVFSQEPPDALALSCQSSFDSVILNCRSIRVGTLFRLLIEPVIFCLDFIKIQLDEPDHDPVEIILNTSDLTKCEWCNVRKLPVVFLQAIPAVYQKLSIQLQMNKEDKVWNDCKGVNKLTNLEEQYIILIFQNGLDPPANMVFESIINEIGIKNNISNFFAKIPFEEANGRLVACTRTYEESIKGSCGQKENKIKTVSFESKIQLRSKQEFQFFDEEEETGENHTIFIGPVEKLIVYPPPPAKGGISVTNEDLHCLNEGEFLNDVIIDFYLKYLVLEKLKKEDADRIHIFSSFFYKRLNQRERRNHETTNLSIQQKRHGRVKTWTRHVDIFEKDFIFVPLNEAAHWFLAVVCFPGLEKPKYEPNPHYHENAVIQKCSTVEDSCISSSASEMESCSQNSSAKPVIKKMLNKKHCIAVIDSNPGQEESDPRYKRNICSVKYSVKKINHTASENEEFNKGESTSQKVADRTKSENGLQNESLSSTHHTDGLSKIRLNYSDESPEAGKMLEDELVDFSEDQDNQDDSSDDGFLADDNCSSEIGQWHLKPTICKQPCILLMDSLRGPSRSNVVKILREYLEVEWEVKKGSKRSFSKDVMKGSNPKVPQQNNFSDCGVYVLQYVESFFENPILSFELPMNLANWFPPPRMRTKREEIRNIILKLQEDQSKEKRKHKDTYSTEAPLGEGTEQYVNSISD
The format is functional.

For assay [3], the target named is T3, Sentrin-specific protease 8 (Homo sapiens, UniProt Q96LD8).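 Also: luminescence read-out of SENP8 inhibition, dose-response confirmation following an ultra-high-throughput screen.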
T3 sequence (Q96LD8 whole entry): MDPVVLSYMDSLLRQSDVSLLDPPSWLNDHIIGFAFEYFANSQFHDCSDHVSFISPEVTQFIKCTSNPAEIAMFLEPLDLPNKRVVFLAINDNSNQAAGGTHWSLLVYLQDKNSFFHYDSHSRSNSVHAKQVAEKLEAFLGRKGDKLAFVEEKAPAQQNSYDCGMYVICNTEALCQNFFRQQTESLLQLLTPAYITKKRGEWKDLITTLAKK
The format is functional.

Another assay addresses T4, Caspase-3 (Homo sapiens, UniProt P42574).
T4 sequence (P42574 whole entry): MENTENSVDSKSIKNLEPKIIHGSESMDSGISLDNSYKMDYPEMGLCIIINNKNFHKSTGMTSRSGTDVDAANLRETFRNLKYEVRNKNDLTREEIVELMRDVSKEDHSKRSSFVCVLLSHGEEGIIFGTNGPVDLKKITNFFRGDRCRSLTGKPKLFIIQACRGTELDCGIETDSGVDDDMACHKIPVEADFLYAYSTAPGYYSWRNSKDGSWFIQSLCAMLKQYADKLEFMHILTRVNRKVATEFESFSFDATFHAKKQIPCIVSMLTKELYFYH
The format is functional.

Assay [4] is described as follows: inhibitors of SNCA 5'UTR-driven reporter translation, confirmation, H4 neuroglioma cells, luminescence (AID 1988). It is filed as functional, cell-based.
Assay [5] in a line: Luminescence Cell-Based Dose Response HTS to Identify Inhibitors of 5'UTR Stem-Loop Driven Prion Protein mRNA Translation in H4 Neuroglioblastoma Cells. [Related pubchem assays: 1827 (Project Summary), 1813 (Primary HTS)]. It is filed as functional.
The next assay concerns HEK293. The assay is described as follows: inhibitors of LMP1-driven NF-kB reporter, dose response, cell-based, HEK293, luciferase, cherry-pick (AID 588343). The format is functional, Homo sapiens.
The target of assay [6] is T5, Latent membrane protein 1 (Human herpesvirus 4 (strain B95-8), UniProt P03230).
T5 sequence (P03230 whole entry): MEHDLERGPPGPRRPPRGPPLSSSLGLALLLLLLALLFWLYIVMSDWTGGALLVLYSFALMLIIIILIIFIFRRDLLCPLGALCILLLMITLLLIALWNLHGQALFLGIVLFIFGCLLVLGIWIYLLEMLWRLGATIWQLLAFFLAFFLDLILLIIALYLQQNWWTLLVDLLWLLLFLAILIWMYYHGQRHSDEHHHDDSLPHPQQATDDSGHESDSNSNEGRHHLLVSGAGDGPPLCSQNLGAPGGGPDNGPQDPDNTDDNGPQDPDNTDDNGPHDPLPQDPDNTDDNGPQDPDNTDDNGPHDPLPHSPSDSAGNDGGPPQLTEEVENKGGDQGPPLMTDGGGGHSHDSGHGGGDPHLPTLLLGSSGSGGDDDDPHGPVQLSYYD
The assay is described as follows: TES1-eGFP NF-kB reporter inhibition versus Tet-On dsRED, dose response, selectivity assay for LMP1 NF-kB inhibitor project, imaging, HEK293T, dual-color eGFP/dsRED, cherry-picks (AID 588398). The format is functional, cell-based.

Assay [7] in a line: inhibitors of firefly luciferase expression or activity, dose response, H4 neuroglioma cells, luminescence (AID 1990). It is filed as functional, cell-based.
The target of assay [8] is T6, Interleukin-8 (Homo sapiens, UniProt P10145).
T6 sequence (P10145 whole entry): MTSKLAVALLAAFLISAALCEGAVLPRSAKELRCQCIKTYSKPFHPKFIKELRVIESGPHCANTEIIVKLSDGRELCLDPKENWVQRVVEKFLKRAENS
The assay is described as follows: Dose Response confirmation of uHTS small molecule hits for cystic fibrosis induced NFkb Inhibitors in a TNFa-induced IL8 counterscreen. It is filed as functional. The note with it: read-out: IC50_Mean. (In general: A counterscreen serves to expose hits that act by an unwanted route or on another target.)

Assay [9] concerns the target T6, Interleukin-8. The assay is described as follows: Dose Response confirmation of uHTS small molecule hits for cystic fibrosis induced NFkb Inhibitors in a PAF-induced IL8 counterscreen. The format is functional. Particulars: read-out: IC50_Mean.
The target of assay [10] is T7, Mitochondrial peptide methionine sulfoxide reductase (Bos taurus, UniProt P54149).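 Also: absorbance read-out, biochemical high-throughput dose-response screen for MsrA inhibitors, confirmatory; recombinant bovine MsrA coupled to E. coli TrxB with NADPH and selenocystamine; potency is for inhibitors of MsrA activity on DMSO substrate.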
T7 sequence (P54149 whole entry): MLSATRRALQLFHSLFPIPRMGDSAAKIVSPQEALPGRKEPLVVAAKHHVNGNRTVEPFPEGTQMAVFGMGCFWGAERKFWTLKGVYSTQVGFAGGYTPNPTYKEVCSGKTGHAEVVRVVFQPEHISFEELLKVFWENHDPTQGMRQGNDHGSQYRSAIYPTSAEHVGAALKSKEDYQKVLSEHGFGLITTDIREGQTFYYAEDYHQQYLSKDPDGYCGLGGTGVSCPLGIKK
The format is functional.

The target of the next assay is T8, Aminopeptidase N (Plasmodium falciparum FcB1/Columbia, UniProt O96935).
T8 sequence (O96935 whole entry): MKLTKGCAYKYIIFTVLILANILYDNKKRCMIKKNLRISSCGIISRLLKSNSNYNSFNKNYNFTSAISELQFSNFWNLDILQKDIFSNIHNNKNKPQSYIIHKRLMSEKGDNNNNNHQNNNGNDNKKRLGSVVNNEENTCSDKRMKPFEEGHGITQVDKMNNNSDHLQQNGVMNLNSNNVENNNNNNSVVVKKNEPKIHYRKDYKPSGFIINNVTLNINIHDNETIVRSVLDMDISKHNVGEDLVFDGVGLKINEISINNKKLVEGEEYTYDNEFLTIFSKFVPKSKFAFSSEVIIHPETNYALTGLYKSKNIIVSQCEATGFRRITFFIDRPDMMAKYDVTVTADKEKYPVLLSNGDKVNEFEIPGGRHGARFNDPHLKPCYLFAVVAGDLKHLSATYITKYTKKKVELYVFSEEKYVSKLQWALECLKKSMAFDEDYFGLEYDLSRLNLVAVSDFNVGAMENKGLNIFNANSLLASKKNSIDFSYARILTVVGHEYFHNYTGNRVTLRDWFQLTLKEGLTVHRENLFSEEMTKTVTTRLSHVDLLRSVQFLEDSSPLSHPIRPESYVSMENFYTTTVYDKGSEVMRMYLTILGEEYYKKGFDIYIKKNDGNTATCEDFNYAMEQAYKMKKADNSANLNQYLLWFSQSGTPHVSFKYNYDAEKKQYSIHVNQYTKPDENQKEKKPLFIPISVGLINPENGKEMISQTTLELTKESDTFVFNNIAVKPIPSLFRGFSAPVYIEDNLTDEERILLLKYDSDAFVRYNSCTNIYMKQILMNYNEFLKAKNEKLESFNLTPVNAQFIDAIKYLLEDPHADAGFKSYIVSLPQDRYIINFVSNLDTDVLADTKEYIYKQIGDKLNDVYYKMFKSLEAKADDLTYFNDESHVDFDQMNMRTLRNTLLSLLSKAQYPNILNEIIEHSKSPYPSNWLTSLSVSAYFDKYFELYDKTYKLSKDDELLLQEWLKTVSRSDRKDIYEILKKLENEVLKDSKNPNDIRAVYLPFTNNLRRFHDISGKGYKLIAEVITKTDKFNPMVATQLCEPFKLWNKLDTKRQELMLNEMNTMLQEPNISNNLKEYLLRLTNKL
The assay can be described thus: P. falciparum M1AAP inhibitors, biochemical, fluorogenic H-Leu-NHMec substrate, 1536-well (AID 1445). The arrangement: species or system Plasmodium falciparum 3D7, 3D7.

Phospholipase A2, sequence (P04054 whole entry): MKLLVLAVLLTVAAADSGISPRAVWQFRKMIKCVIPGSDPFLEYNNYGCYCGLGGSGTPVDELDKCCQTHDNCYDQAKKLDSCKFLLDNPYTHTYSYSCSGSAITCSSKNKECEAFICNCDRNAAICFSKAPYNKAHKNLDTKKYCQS

Take `CC(C)(C)C(=O)CSc1ncnc2sc3c(c12)CCC3`: the IC50 on Phospholipase A2 was 2.59 µM (active).
For `CC(C)C(=O)Nc1ccc2nn(-c3ccccc3)nc2c1`, the IC50 in assay [1] was 8.73 µM (active); in assay [2], > 100 µM (inactive); in assay [3], > 100 µM (inactive); on Caspase-3, 26.7 µM (active).
Take `c1ccc(-c2cn3c4c(sc3n2)CCCC4)cc1`: the EC50 in assay [4] is 6.38 µM (active); in assay [5] it was 6.75 µM (active). For the same compound, the values for the half-maximal activity concentration (AC50) (in the assay on HEK293 (hek293); in assay [6]) were 2.07 µM (active) and 47.1 µM (active), respectively.
With `N#CC1=C(N)N2C(=C(C#N)C1c1cccc(Br)c1)Nc1ccccc12` (stereo not given), the concentration giving a half-maximal response (EC50) is 12.9 µM (active) in assay [4], 14.6 µM (active) in [5] and 11.3 µM (active) in assay [7]. Further, the AC50 in the assay with HEK293 (Homo sapiens, HEK293) is 3.62 µM (active); in assay [6] it was 54 µM (active).
As to `Cc1ccccc1-c1nc2cc(Cl)ccc2o1`, the IC50 in [1] is 4.69 µM (active); in [2] it was 13.7 µM (active); in assay [3] it was 79.7 µM (active); on Caspase-3, 12.9 µM (active).
With `O=C1C=C(NC2=CC3OC(c4ccccc4)OCC3OC2=O)CCC1` (stereo not given), the IC50 is 1.07 µM (active) at Interleukin-8 [8] and 1.5 µM (active) at Interleukin-8 [9].
As to `CCOP(=O)(Nc1ccc2c(c1)C(=NNC(N)=S)c1ccccc1-2)OCC`, the IC50 in assay [10] was 95.9 µM (inactive).
With `O=Cc1cc(OCc2ccccc2)ccc1[B-](F)(F)F`, the AC50 with HEK293 (Homo sapiens, HEK293) is 2.86 µM (active); in assay [6], 1.14 µM (active).
As to `COCc1cc(C)n(CC(=O)N/N=C/c2ccc(-c3ccc(Cl)c(C(=O)O)c3)o2)c(=O)c1C#N`, the IC50 at Aminopeptidase N is 24.7 µM (active); in [10], 99.4 µM (inactive).
